From patent publication US20170050957A1, “4-AMINO-6-(HETEROCYCLIC)PICOLINATES AND 6-AMINO-2-(HETEROCYCLIC)PYRIMIDINE-4-CARBOXYLATES AND THEIR USE AS HERBICIDES” (Dow AgroSciences LLC, priority 2013, published 2017)
Like-named read-outs stand apart in the source and are kept apart here.

Experiments:
[1] = test system: Key Grass and Sedge Weeds as well as Grass Crops; assay: Post-emergent Test II herbicidal activity (Table 16); assay type: in vivo; conditions: post-emergence, 336 h; for pest or weed control at 35 g/ha: 35 g ai/ha; for pest or weed control at 70 g/ha: 70 g ai/ha; for pest or weed control at 140 g/ha: 140 g ai/ha
Outline: (§1)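 Herbicidal effect scored as percent visual injury, 14 d after post-emergent application. Spray solutions contained acetone, DMSO, isopropyl alcohol, crop oil concentrate and surfactant, applied at 187 L/ha to young plants (1-2 true leaves).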

[2] = test system: Key Broadleaf Weed and Crop Species; assay: Post-emergent Test II herbicidal activity (Table 15); assay type: in vivo; conditions: post-emergence, 336 h, 14 d; for pest or weed control at 35 g/ha: 35 g ai/ha; for pest or weed control at 70 g/ha: 70 g ai/ha; for pest or weed control at 140 g/ha: 140 g ai/ha
Outline: as §1

[3] = Cyperus esculentus, yellow nutsedge (Cyperus esculentus), 14 d, read-out: Visual Growth Reduction (%) 14 Days After Application, CYPES
[4] = Echinochloa crus-galli, barnyardgrass (Echinochloa crus-galli), 14 d, read-out: Visual Growth Reduction (%) 14 Days After Application, ECHCG
[5] = Oryza sativa, rice (Oryza sativa), 14 d, read-out: Visual Growth Reduction (%) 14 Days After Application, ORYSA
[6] = Setaria faberi, giant foxtail (Setaria faberi), 14 d, read-out: Visual Growth Reduction (%) 14 Days After Application, SETFA
[7] = Triticum aestivum, wheat, spring (Triticum aestivum), 14 d, read-out: Visual Growth Reduction (%) 14 Days After Application, TRZAS
[8] = Zea mays, maize, corn (Zea mays), 14 d, read-out: Visual Growth Reduction (%) 14 Days After Application, ZEAMX
[9] = Abutilon theophrasti, velvetleaf (Abutilon theophrasti), read-out: Visual Growth Reduction (%) 14 Days After Application, ABUTH
[10] = Amaranthus retroflexus, redroot pigweed (Amaranthus retroflexus), read-out: Visual Growth Reduction (%) 14 Days After Application, AMARE
[11] = Brassica napus, oilseed rape, canola (Brassica napus), read-out: Visual Growth Reduction (%) 14 Days After Application, BRSNN
[12] = Chenopodium album, lambsquarters (Chenopodium album), read-out: Visual Growth Reduction (%) 14 Days After Application, CHEAL
[13] = Euphorbia heterophylla, wild poinsettia (Euphorbia heterophylla), read-out: Visual Growth Reduction (%) 14 Days After Application, EPHHL
[14] = Helianthus annuus, sunflower (Helianthus annuus), read-out: Visual Growth Reduction (%) 14 Days After Application, HELAN
[15] = Cyperus esculentus, yellow nutsedge (Cyperus esculentus), 14 days after application, read-out: Visual Growth Reduction (%) 14 Days After Application CYPES
[16] = Echinochloa crus-galli, barnyardgrass (Echinochloa crus-galli), 14 days after application, read-out: Visual Growth Reduction (%) 14 Days After Application ECHCG
[17] = Oryza sativa, rice (Oryza sativa), 14 days after application, read-out: Visual Growth Reduction (%) 14 Days After Application ORYSA
[18] = Setaria faberi, giant foxtail (Setaria faberi), 14 days after application, read-out: Visual Growth Reduction (%) 14 Days After Application SETFA
[19] = Triticum aestivum, wheat, spring (Triticum aestivum), 14 days after application, read-out: Visual Growth Reduction (%) 14 Days After Application TRZAS
[20] = Zea mays, maize, corn (Zea mays), 14 days after application, read-out: Visual Growth Reduction (%) 14 Days After Application ZEAMX

SMILES | pest or weed control at 35 g/ha [1, 3] [%] | pest or weed control at 35 g/ha [1, 4] [%] | pest or weed control at 35 g/ha [1, 5] [%] | pest or weed control at 35 g/ha [1, 6] [%] | pest or weed control at 35 g/ha [1, 7] [%] | pest or weed control at 35 g/ha [1, 8] [%] | pest or weed control at 35 g/ha [2, 9] [%] | pest or weed control at 70 g/ha [2, 9] [%] | pest or weed control at 140 g/ha [2, 9] [%] | pest or weed control at 35 g/ha [2, 10] [%] | pest or weed control at 70 g/ha [2, 10] [%] | pest or weed control at 140 g/ha [2, 10] [%] | pest or weed control at 35 g/ha [2, 11] [%] | pest or weed control at 70 g/ha [2, 11] [%] | pest or weed control at 140 g/ha [2, 11] [%] | pest or weed control at 35 g/ha [2, 12] [%] | pest or weed control at 70 g/ha [2, 12] [%] | pest or weed control at 140 g/ha [2, 12] [%] | pest or weed control at 35 g/ha [2, 13] [%] | pest or weed control at 70 g/ha [2, 13] [%] | also measured
COC(=O)c1nc(-c2ccc(Cl)c3ccoc23)cc(N)c1Cl [Compound 2.25] | 0 to 29 | 0 to 29 | 0 to 29 | 0 to 29 | 0 to 29 | 0 to 29 | 75 to 84 | 75 to 84 | 95 to 100 | 95 to 100 | 95 to 100 | 95 to 100 | 0 to 29 | 45 to 59 | 75 to 84 | 95 to 100 | 95 to 100 | 95 to 100 | 0 to 29 | 75 to 84 | pest or weed control at 70 g/ha [1, 3]: 30 to 44%; pest or weed control at 140 g/ha [1, 3]: 75 to 84%; pest or weed control at 70 g/ha [1, 4]: 0 to 29%; pest or weed control at 140 g/ha [1, 4]: 0 to 29%; pest or weed control at 70 g/ha [1, 5]: 0 to 29%; pest or weed control at 140 g/ha [1, 5]: 0 to 29%; pest or weed control at 70 g/ha [1, 6]: 0 to 29%; pest or weed control at 140 g/ha [1, 6]: 0 to 29%; pest or weed control at 70 g/ha [1, 7]: 0 to 29%; pest or weed control at 140 g/ha [1, 7]: 0 to 29%; pest or weed control at 70 g/ha [1, 8]: 0 to 29%; pest or weed control at 140 g/ha [1, 8]: 45 to 59%; pest or weed control at 140 g/ha [2, 13]: 85 to 94%; pest or weed control at 35 g/ha [2, 14]: 0 to 29%; pest or weed control at 70 g/ha [2, 14]: 30 to 44%; pest or weed control at 140 g/ha [2, 14]: 85 to 94%; melting point: 169 °C
Cc1c(-c2ccc3sccc3c2)nc(C(=O)O)c(Cl)c1N [Compound 3.07] | 0 to 29 | 0 to 29 | 0 to 29 | 0 to 29 | 0 to 29 | 0 to 29 | 0 to 29 | 0 to 29 | 0 to 29 | 0 to 29 | 60 to 74 | 75 to 84 | 45 to 59 | 60 to 74 | 60 to 74 | 0 to 29 | 0 to 29 | 75 to 84 | 0 to 29 | 0 to 29 | pest or weed control at 70 g/ha [1, 15]: 0 to 29%; pest or weed control at 140 g/ha [1, 15]: 0 to 29%; pest or weed control at 70 g/ha [1, 16]: 0 to 29%; pest or weed control at 140 g/ha [1, 16]: 0 to 29%; pest or weed control at 70 g/ha [1, 17]: 0 to 29%; pest or weed control at 140 g/ha [1, 17]: 0 to 29%; pest or weed control at 70 g/ha [1, 18]: 0 to 29%; pest or weed control at 140 g/ha [1, 18]: 0 to 29%; pest or weed control at 70 g/ha [1, 19]: 0 to 29%; pest or weed control at 140 g/ha [1, 19]: 0 to 29%; pest or weed control at 70 g/ha [1, 20]: 0 to 29%; pest or weed control at 140 g/ha [1, 20]: 0 to 29%; pest or weed control at 140 g/ha [2, 13]: 0 to 29%; pest or weed control at 35 g/ha [2, 14]: 85 to 94%; pest or weed control at 70 g/ha [2, 14]: 85 to 94%; pest or weed control at 140 g/ha [2, 14]: 85 to 94%; melting point: 159 to 165 °C
